According to the supplement of paper PMC10307832:

Experiments:
Assay in all cases: relative viability (nuclei count vs DMSO), 5 days (fraction); higher = more cells survive
[1] = compound: Cn1nnc2c(C(N)=O)ncn2c1=O [Temozolomide] + C[C@@H](Oc1cc(-c2cnn(C3CCNCC3)c2)cnc1N)c1c(Cl)ccc(F)c1Cl [Crizotinib] (partner 1 µM)
How it was run: (§1)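 One day after seeding in 1536-well plates, lung cancer cell lines were dosed by pin tool. Dosing was either single-drug or a fixed anchor-drug dose plus five library-drug doses (not always all listed) in √10 steps. After 5 days, nuclei were stained in one fix-and-stain step and counted on 4× images, and relative viability is the nuclei count of treated wells over that of vehicle wells, given as the median of duplicate plates.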

AZD5582 + Vorinostat = compound: C[C@@H](C(=O)N[C@@H](C1CCCCC1)C(=O)N2CCC[C@H]2C(=O)N[C@@H]3[C@@H](CC4=CC=CC=C34)OCC#CC#CCO[C@@H]5CC6=CC=CC=C6[C@@H]5NC(=O)[C@@H]7CCCN7C(=O)[C@H](C8CCCCC8)NC(=O)[C@H](C)NC)NC [AZD5582] + O=C(CCCCCCC(=O)Nc1ccccc1)NO [Vorinostat] (partner 1 µM)
How it was run: as §1

AZD5582 + AZD7762 = compound: C[C@@H](C(=O)N[C@@H](C1CCCCC1)C(=O)N2CCC[C@H]2C(=O)N[C@@H]3[C@@H](CC4=CC=CC=C34)OCC#CC#CCO[C@@H]5CC6=CC=CC=C6[C@@H]5NC(=O)[C@@H]7CCCN7C(=O)[C@H](C8CCCCC8)NC(=O)[C@H](C)NC)NC [AZD5582] + NC(=O)Nc1cc(-c2cccc(F)c2)sc1C(=O)N[C@H]1CCCNC1 [AZD7762] (partner 0.2 µM)
How it was run: as §1

Temozolomide + Foretinib = compound: Cn1nnc2c(C(N)=O)ncn2c1=O [Temozolomide] + COc1cc2c(Oc3ccc(NC(=O)C4(C(=O)Nc5ccc(F)cc5)CC4)cc3F)ccnc2cc1OCCCN1CCOCC1 [Foretinib] (partner 0.25 µM)
How it was run: as §1

Row | Cell Line | relative viability ([1]; first compound 0.2 µM) | relative viability ([1]; first compound 0.6325 µM) | relative viability ([1]; first compound 2 µM) | relative viability ([1]; first compound 6.325 µM) | relative viability ([1]; first compound 20 µM) | relative viability (AZD5582 + Vorinostat; first compound 0.001581 µM) | relative viability (AZD5582 + Vorinostat; first compound 0.005 µM) | relative viability (AZD5582 + Vorinostat; first compound 0.01581 µM) | relative viability (AZD5582 + Vorinostat; first compound 0.05 µM) | relative viability (AZD5582 + AZD7762; first compound 0.001581 µM) | relative viability (AZD5582 + AZD7762; first compound 0.005 µM) | relative viability (AZD5582 + AZD7762; first compound 0.01581 µM) | relative viability (AZD5582 + AZD7762; first compound 0.05 µM) | relative viability (Temozolomide + Foretinib; first compound 0.2 µM) | relative viability (Temozolomide + Foretinib; first compound 0.6325 µM) | relative viability (Temozolomide + Foretinib; first compound 2 µM) | relative viability (Temozolomide + Foretinib; first compound 6.325 µM) | relative viability (Temozolomide + Foretinib; first compound 20 µM)
1 | 201T | 1.02 | 1.09 | 1.08 | 0.834 | 0.986 | 1.05 | 1.11 | 0.919 | 1.22 | 0.479 | 0.579 | 0.556 | 0.447 | 0.901 | 1.2 | 1.14 | 1.08 | 1.03
2 | A549 | 0.809 | 0.829 | 0.869 | 0.754 | 0.816 | – | – | – | – | – | – | – | – | 1.02 | 0.996 | 0.998 | 1.01 | 0.769
3 | A-427 | 0.927 | 0.775 | 0.815 | 0.594 | 0.428 | 0.816 | 0.862 | 0.885 | 0.904 | 0.682 | 0.703 | 0.748 | 0.637 | 0.992 | 0.981 | 1.03 | 0.66 | 0.486
4 | ABC-1 | 1.11 | 0.91 | 1.14 | 1.17 | 1.34 | 1.22 | 1.57 | 0.934 | 1.08 | 0.59 | 1.13 | 0.72 | 0.572 | 1.06 | 0.96 | 1.21 | 1.07 | 1.11
5 | BEN | 0.649 | 0.858 | 0.814 | 0.815 | 0.717 | 0.53 | 0.568 | 0.591 | 0.555 | 0.74 | 0.701 | 0.866 | 0.619 | 0.734 | 0.651 | 0.803 | 0.517 | 0.428
6 | CAL-12T | 0.93 | 0.744 | 0.587 | 0.695 | 0.733 | 0.533 | 0.703 | 0.644 | 0.754 | 0.423 | 0.468 | 0.485 | 0.405 | 1.13 | 1.09 | 1.15 | 1.05 | 1.13
7 | COR-L23 | 0.925 | 0.701 | 0.669 | 0.503 | 0.614 | 0.404 | 0.495 | 0.452 | 0.587 | – | – | – | – | 1.12 | 1.06 | 1.01 | 0.961 | 0.911
8 | COR-L 105 | 0.739 | 0.913 | 0.827 | 0.787 | 0.841 | 0.843 | 0.912 | 0.727 | 0.878 | – | – | – | – | 1.17 | 1.29 | 1.18 | 0.51 | 1.11
9 | Calu-6 | 0.997 | 0.83 | 0.904 | 0.817 | 0.767 | – | – | – | – | – | – | – | – | 0.886 | 0.843 | 0.941 | 0.811 | 0.904
10 | ChaGo-K-1 | 1.3 | 1.16 | 1.15 | 0.646 | 1.12 | 0.718 | 0.767 | 0.711 | 0.739 | 0.794 | 0.874 | 0.816 | 0.837 | 0.993 | 0.886 | 0.992 | 0.98 | 0.975
11 | EBC-1 | 0.167 | 0.2 | 0.229 | 0.208 | 0.194 | – | – | – | – | – | – | – | – | 0.11 | 0.1 | 0.0982 | 0.111 | 0.117
12 | EKVX | 0.357 | 1.07 | 0.951 | 0.886 | 0.551 | 0.72 | 0.934 | – | 0.932 | 0.603 | 0.661 | 0.565 | 0.595 | 0.485 | 0.799 | 0.748 | 0.722 | 0.356
13 | EMC-BAC-2 | 0.842 | 0.74 | 0.789 | 0.768 | 0.804 | 0.406 | 0.474 | 0.375 | 0.546 | 1.07 | 1.06 | 0.996 | 1.04 | 0.947 | 1.07 | 1.02 | 0.998 | 0.973
14 | EPLC-272H | 0.851 | 0.986 | 0.925 | 0.962 | 0.728 | – | – | 0.429 | 0.074 | 0.0994 | – | 0.204 | 0.0859 | 0.537 | 0.697 | 0.628 | 0.712 | 0.497
15 | H3255 | – | 0.822 | 0.795 | 0.798 | 0.179 | 0.831 | 0.976 | 0.722 | 0.48 | 0.805 | 0.779 | 0.842 | 0.773 | – | 0.845 | 1.03 | 0.507 | 0.201
16 | HARA | 1.04 | 1.05 | 1.15 | 1.01 | 0.949 | 0.659 | 0.69 | 0.441 | 0.672 | 0.204 | 0.261 | 0.315 | 0.225 | 0.8 | 0.991 | 1.05 | 0.671 | 0.641
17 | HCC-15 | 0.872 | 0.918 | 0.807 | 0.805 | 0.905 | 0.762 | 0.883 | 0.752 | 0.967 | 1.06 | 1.05 | 1.2 | 0.615 | 1.15 | 1.04 | 1.06 | 0.969 | 1.1
18 | HCC-44 | 0.786 | 0.796 | 0.791 | 0.831 | 0.826 | 1.04 | 1.01 | 1.08 | 1.04 | 0.9 | 1.01 | 1.05 | 1.03 | – | – | – | – | –
19 | HCC-78 | 0.293 | 0.331 | 0.382 | 0.361 | 0.248 | 0.414 | 0.493 | 0.438 | 0.366 | 0.691 | 0.601 | 0.468 | 0.417 | 0.487 | 0.547 | 0.616 | 0.551 | 0.552
